Experiments:
human chondrocytes = experiment: Redifferentiation of expanded human chondrocytes in pellet culture, real-time quantitative PCR of differentiation indexes; type: cell-based
Method: Human articular cartilage samples were collected from the hip of 3 patients with no history of joint disease, undergoing joint replacement, following femoral neck fracture.
The cartilage samples were harvested aseptically and digested with 0.15% type II collagenase for 22 hours to isolate primary chondrocytes. The cells were washed and resuspended in Dulbecco's modified Eagles medium (DMEM) supplemented with 10% fetal bovine serum, 4′500 mg/l D-Glucose, nonessential amino acids, 1 mM sodium pyruvate, 100 mM HEPES buffer, 100 U/ml penicillin, 100 μg/ml streptomycin, and 0.29 mg/ml L-glutamine (control medium, CTR). Chondrocytes were seeded into tissue culture flasks at approximately 10^4 cells/cm^2 and cultured in a humidified 37° C./5% CO^2 incubator.
After approximately 10 days, when the cells were confluent, first passage cells (P1) were detached using 0.25% trypsin/1 mM EDTA and replated at 5×10^3 cells/cm^2. After one more week, when the cells reached again confluency, second passage (P2) cells were trypsinised and cultured in pellets. Throughout the expansion phase, cells were cultured in control medium, with or without the addition of 5 ng/ml of Fibroblast Growth Factor-2 (FGF-2).
The cells were suspended at 5×10^5 cells/0.5 ml of serum-free medium (SF) consisting of DMEM supplemented with ITS+1 (containing 10 μg/ml insulin, 5.5 μg/ml transferrin, 5 ng/ml selenium, 0.5 mg/ml bovine serum albumin, 4.7 μg/ml linoleic acid), 0.1 mM ascorbic-acid 2-Phosphate, and 1.25 μg/ml human serum albumin. This suspension was centrifuged at less than 8000 rpm for 15 seconds in polypropylene conical tubes to form spherical pellets which were then statically incubated in a humidified 37° C./5% CO^2 incubator for 24 hours. […]
P, alone or in combination with A and/or D and/or H and/or T, was supplemented to the SF medium during 3D culture of the human chondrocyte cell pellets. After two weeks, the differentiation indexes (CII/CI and Agg/Ver) were assessed. […]
Further, for each primary culture, 2 pellets were formed per experimental group and assessed histologically and for quantitative PCR as described below.
Theoretical Basis. Real-time quantitative PCR monitors the degradation of a sequence-specific, dual-labeled fluorescent probe after each cycle of PCR amplification. […] After subtraction of the background fluorescence, calculated during the first 15 amplification cycles, the measured fluorescence is graphed as an amplification plot. […] The Ct value is correlated to input target mRNA amount: a larger starting quantity of mRNA target results in a lower number of PCR cycles required for the reporter fluorescent emission to reach the threshold, and therefore a lower Ct value. […]

chondrocytes = conditions: cited from earlier work
[1] = SF medium supplemented with P, 1 μg/ml, two weeks, vs control culture

| Compound | Agg/Ver differentiation index, increase compared to the control culture (human chondrocytes; [1]) | CII/CI differentiation index, increase compared to the control culture (human chondrocytes; [1]) | effects on differentiation indexes and CI mRNA on chondrocytes expanded with FGF-2 (human chondrocytes; chondrocytes expanded with 5 ng/ml FGF-2, compared with those expanded without FGF-2) | expression of CI (collagen type I) mRNA (human chondrocytes; pellets, SF medium supplemented with P) | cartilaginous tissue formed after seeding onto three-dimensional polymer scaffolds (chondrocytes; chondrocytes expanded in the presence of FGF-2, versus freshly isolated (primary) chondrocytes) | formation of thick F-actin structures during monolayer expansion (chondrocytes; monolayer expansion in the presence of FGF-2) |
| --- | --- | --- | --- | --- | --- | --- |
| CCCCC[C@H](O)/C=C/[C@H]1[C@H](O)CC(=O)[C@@H]1C/C=C\CCCC(=O)O [P, prostaglandin E2] | at least 2 orders of magnitude | at least 2 orders of magnitude | comparable | decrease |  |  |
| FGF-2: fibroblast growth factor-2, growth factor added during monolayer expansion of chondrocytes |  |  |  |  | histologically and biochemically comparable to that obtain using freshly isolated chondrocytes | inhibits |
